Data published in patent US20110014260A1, “SYSTEM AND METHOD FOR LIVER CELL CULTURE AND MATURATION” (priority 2007, published 2011).

Experiments:
Format in all cases: cell-based, mouse
[1] = test system: day 17 EB derived hepatocyte lineage cells (ES cell line D3); experiment: In situ indirect immunofluorescent cytokeratin-18 analysis; design: key to CK18: A (+) represents at least one time point of significant expression or secretion function in the three conditions.; A (−) represents functions which were absent on all experimental days
Method: (§1) In order to induce differentiation, cells were suspended in Iscove's modified Dulbecco's medium (Gibco) containing 20% fetal bovine serum (Gibco), 4 mM L-glutamine (Gibco), 100 U/ml penicillin, 100 U/ml streptomycin (Gibco), 10 ug/ml gentamicin (Gibco). Embryoid bodies were formed and cultured for two days using the hanging drop method (1×10^3 ES cells per 30 ul drop). Hanging drops where transferred to suspension culture in 100 mm petri dishes and cultured for an additional 2 days. The EB's were then plated, one EB per well, in 6 well tissue culture polystyrene plates (BD-Biosciences) for an additional 14 days. For secondary culture day 17 EBs cells were detached following incubation with 0.5 ml of trypsin (Gibco) for three minutes, resulting in a single cell suspension, and subsequently the addition of IMDM media. Cells from day 17 EB's were used because it has been observed that hepatocyte function is greatest on day 17. Cells were then re-plated in 6 well tissue culture polystyrene (BD-Biosciences) at an initial seeding density of 5×10^4 day 17 cells per well for further analysis. Culture medium was changed every forty eight hours. When OSM and SNAP were supplemented, 10 ng/ml OSM and 250 μM SNAP were added to the culture medium. […]

[2] = test system: day 17 EB derived hepatocyte lineage cells (ES cell line D3); experiment: Glycogen storage; design: key to Glycogen: A (+) represents at least one time point of significant expression or secretion function in the three conditions.; A (−) represents functions which were absent on all experimental days
[3] = test system: day 17 EB derived hepatocyte lineage cells (ES cell line D3); experiment: Cell number / proliferation in secondary culture; details: collagen sandwich configuration, within 10 days
Method: as §1, with “media.” for “media. Cells from day 17 EB's were used because it has been observed that hepatocyte function is greatest on day 17. Cells were then re-plated in 6 well tissue culture polystyrene (BD-Biosciences) at an initial seeding density of 5×10^4 day 17 cells per well for further analysis. Culture medium was changed every forty eight hours. When OSM and SNAP were supplemented, 10 ng/ml OSM and 250 μM SNAP were added to the culture medium.”
Therefore, cultures were established to study the maintenance and augmentation of hepatocyte like function previously observed after 17 days of spontaneous EB mediated differentiation. Hepatocyte lineage maintenance was initially assessed by examining the dynamics of cell growth following removal of cells from their primary EB culture and re-plating into tissue culture polystyrene. 5×10^4 cells from day 17 EB cultures were re-plated into one well of a six well plate and evaluated on days 4, 6, 8 and 10 days post re-plating. […]

[4] = test system: day 17 EB derived hepatocyte lineage cells (ES cell line D3); experiment: Urea secretion; design: key to Urea: A (+) represents at least one time point of significant expression or secretion function in the three conditions.; A (−) represents functions which were absent on all experimental days
Method: as §1, with “analysis.” for “analysis. Culture medium was changed every forty eight hours. When OSM and SNAP were supplemented, 10 ng/ml OSM and 250 μM SNAP were added to the culture medium.”
Media samples were collected on all analysis days. […] Absorbance readings were obtained using a Biorad (Hercules, Calif.) Model 680 plate reader with a 585 nm emission filter. Urea values were normalized to the cell number recorded on the day of media sample collection.

[5] = test system: day 17 EB derived hepatocyte lineage cells (ES cell line D3); experiment: In situ indirect immunofluorescent intracellular albumin analysis; design: key to Intracellular ALB: A (+) represents at least one time point of significant expression or secretion function in the three conditions.; A (−) represents functions which were absent on all experimental days
Method: as §1, with “medium. When collagen sandwich culture was used, rat tail type I collagen (BD-Biosciences) gels were prepared by distributing 350 μL of collagen gel solution (3 parts 1.33×DMEM, pH 7.4, and 1 part collagen solution at 4 mg/mL, chilled on ice and mixed immediately prior to use) evenly over one well of a six well plate (BD-Biosciences) and incubated at 37° C. for at least one hour before use. 5×10^5 cells were seeded in 2 mL of IMDM media on day 0 and an additional 350 μL of collagen gel solution was distributed over the cells after 1 day of culture. Therefore, the second layer of collagen is added on day 1 of secondary culture protocol. One hour of incubation at 37° C. was allowed for gelation and attachment of the second gel layer before the medium was replaced. Culture medium was changed every forty eight hours.” for “medium.”

[6] = test system: day 17 EB derived hepatocyte lineage cells (ES cell line D3); experiment: Sandwich ELISA for detection of albumin secretion; design: key to ALB Secretion: A (+) represents at least one time point of significant expression or secretion function in the three conditions.; A (−) represents functions which were absent on all experimental days
Method: as §1, with “17.” for “17. Cells were then re-plated in 6 well tissue culture polystyrene (BD-Biosciences) at an initial seeding density of 5×10^4 day 17 cells per well for further analysis. Culture medium was changed every forty eight hours. When OSM and SNAP were supplemented, 10 ng/ml OSM and 250 μM SNAP were added to the culture medium.”
In order to detect secreted albumin within the media supernatants obtained on each of the analysis days, we used a commercially available mouse albumin ELISA kit (Bethyl Laboratories, #E90-134). […] Absorbance readings were obtained using a Biorad (Hercules, Calif.) Model 680 plate reader with a 450 nm emission filter. Albumin values were normalized to the cell number recorded on the day of media sample collection.

[7] = test system: day 17 EB derived hepatocyte lineage cells (ES cell line D3); experiment: Cytochrome P450 activity (resorufin o-dealkylase, BROD/MROD); design: key to CYP450: A (+) represents at least one time point of significant expression or secretion function in the three conditions.; A (−) represents functions which were absent on all experimental days
Method: On evaluation days 4, 6, 8 and 10 days in secondary culture, cells were re-plated into 12 well plates. 3-Methylcholanthrene was used at a concentration of 2 μM (Sigma-Aldrich) for 48 hours prior to the addition of resorufin as an inducer of cytochrome P450 activities. Cytochrome P450-dependent resorufin o-dealkylase activity (BROD, PROD, EROD, and MROD) was measured using resorufin substrates namely pentoxy-, benzyloxy-, ethoxy-, and methoxyresorufin from a Resorufin Sampler Kit (Invitorgen, Carlsbad, Calif.). […] The fluorescence of the plate was measured using a fluorescence plate reader (DTX880, Beckman Coltour, Fullerton, Calif., ext. 530 nm and emis. 590 nm) at the end of min incubation. A standard curve of resorufin fluorescence was constructed using concentrations ranging from 1 to 1,000 nmol in EBSS. […] The constructed standard curve was used to convert the fluorescence values obtained from the plate reader to nanomoles of resorufin. Rate of formation of resorufin, as calculated from the early linear increase in the fluorescence curve, was defined as cytochrome P450 activity and expressed as nmol/min.
Cytochrome P450 enzymes play a key role in detoxifying xenobiotics and were used in these studies to asses hepatocyte function. […] BROD and MROD activity can be determined from the enzymatic conversion of resorufin.

[8] = polystyrene culture, OSM or SNAP supplemented
[9] = polystyrene secondary culture, 10 ng/ml OSM or 250 μM SNAP, days 4-10

Which CK18 expression [1, 8] does the source give for Oncostatin-M [OSM] here?
Its CK18 expression is “not detected at any level”.

What about the CK18 [1, 9] of the same substance?
Its CK18 is “−”.

What about the glycogen storage [2, 8] of the same substance?
Its glycogen storage is “not detected at any level”.

What about the Glycogen [2, 9] of the same substance?
The Glycogen was “−”.

What about the “cell number reached from 5×10^4 Day 17 cells” value [3] of the same substance?
Its value is 1×10^6 cells.

What about the “Urea secretion time course” value ([4]; polystyrene culture, supplemented) of the same substance?
Its value is “greatest at day eight”.

What about the Urea [4, 9] of the same substance?
Its Urea is “+”.

What about the “albumin expression (percentage of cells expressing albumin)” value ([5]; collagen sandwich culture, 10 days post re-plating) of the same substance?
The value was 80%.

And the “Intracellular ALB” value [5, 9]?
The value was “+”.

And the “Time for which ALB expression was maintained” value ([5]; polystyrene secondary/tertiary culture, supplemented, SNAP at a lower level)?
The value was “up to eight”.

And the albumin secretion [6, 8]?
Its albumin secretion is “not detected at any level”.

What about the “ALB Secretion” value [6, 9] of the same substance?
The value was “−”.

And the CYP450 mediated detoxification [7, 8]?
Its CYP450 mediated detoxification is “not detected at any level”.

And the CYP450 [7, 9]?
The CYP450 was “−”.
